Where no end group is shown, it is not given here.
Experiments:
intact cardiac myocytes = assay: Spontaneous Ca2+ waves (SCW) in intact cardiac myocytes; format: cell-based, rat
Procedure: (§1) Intact cardiomyocytes were loaded with Fluo-4 AM (5 μmol/L, Molecular Probes) for 15 min in NT solution (in mM): NaCl 140, KCl 4, MgCl2 1, CaCl2 2, glucose 10, HEPES 5, pH 7.4. Fluo-4 AM was excited at 488 nm and emission was recorded using a 500-530 nm bandpass filter. Ca^2+sparks were recorded after field stimulation at 1 Hz, and caffeine (10mmol/L) was rapidly perfused for assessing the SR Ca^2+content. Both Ca^2+sparks and SR Ca^2+content were recorded by using a laser scanning confocal microscope (RADIANCE2000™ MP, Bio-Rad, UK). Data were analyzed using SparkMaster, an automated analysis program that allows rapid and reliable spark analysis (Picht et al., J. Am J Physiol Cell Physiol. 2007;293:C1073-C1081). Spontaneous Ca^2+waves were recorded using a BZ9000 fluorescence digital microscope (Keyence, Japan), after 10 sec from field electric stimulation at 1,2,3,4 and 5 Hz, as described previously (Fukuda et al., Biochem Biophys Res Commun. 2014;448:1-7).

[1] = system: rat intact cardiomyocytes; assay: Ca2+ sparks and SR Ca2+ content in intact cardiomyocytes; format: cell-based; details: for Ca2+ spark Amplitude (ΔF/F0) / Ca2+ spark FDHM / Ca2+ spark FWHM: H2O2 50 μmol/L, dantrolene 1 μmol/L
Procedure: as §1
Oxidation induced by hydrogen peroxide (H2O2) is expected to activate SR Ca^2+ leak through RyR2 at diastolic [Ca]i (Wagner et al., Circ Res. 2011; 108:555-65; Yan et al., Cardiovasc Res. 2008; 77:432-41). We used line-scan images to measure the effects of 50 μM/L H2O2 on Ca^2+ spark frequency (CaSpF) and SR Ca^2+ content (evaluated via rapid caffeine application) in intact cardiomyocytes after 1 Hz electric field stimulation (FIG. 25). […] Thus H2O2 may enhance diastolic RyR2 channel opening. […] So CaSpF normalized to SR Ca^2+ content, was significant increase by H2O2 treatment of myocytes (FIG. 25C).

RyR2 = RyR2 (Rattus norvegicus, UniProt B0LPN4); assay: F-DPc10 wash-in and washout kinetics at the myocyte Z-line; format: binding; parameters: endogenous in cells; host or cells: saponin-permeabilized adult rat ventricular myocytes; details: for effect on HF647-DPc10 wash-out kinetics: dantrolene 1 μmol/L, NF-DPc10 5 μmol/L
Procedure: To characterize DPc10-binding kinetics at Z-lines, we performed F-DPc10 wash-in (500 nmol/L) and washout experiments in permeabilized myocytes (FIG. 10A). Association (τwash-in=79.0±3.2 minutes) and dissociation (τwashout=149.8±4.4 minutes) were very slow compared with similar FKBP12.6 measurements (Guo et al., Circ Res, 2010; 106:1743-1752). From the wash-in/washout measurements, we calculated the association and dissociation rates constants, kon and koff, respectively, according to the following equation: kwash-in=[F-DPc10]kon+koff where kwashout≈koff and k=1/τ (s^−1). Accordingly, kon=202±20 (L mol^−1 s^−1) and koff=0.11±0.01 (10^−3 s^−1). […] We repeated this kinetic analysis using FRET between FKBP12.6 and DPc10, thus assessing the RyR2-specific DPc10 binding (FIG. 11A AND 11B). […] Based on these kinetic and affinity analyses, we infer that most of the Z-line-specific DPc10 binding is to RyR2. This is also consistent with Bmax, which would imply ≈1 DPc10 per RyR2 monomer.
We were intrigued by the slow kwash-in and conducted measurements to further understand the basis of this slow association. We tested the hypothesis that at resting [Ca^2+]i, DPc10 access to its RyR2 binding site is sterically hindered. If the N-terminal and central domains are tightly zipped to each other, then this interaction may occlude the DPc10-binding site on the RyR2, thus limiting the kon for DPc10. Alternatively, a limiting factor may be the rate at which DPc10 adopts a conformation that can bind to RyR2. To discern between these mechanisms, we determined the effect of [F-DPc10] on τwash-in. If the small fraction of DPc10 in the right conformation limits binding rate, then τwash-in should be faster at higher [F-DPc10], according to Equation. […] Instead, a 10-fold increase in [F-DPc10] had no significant effect on the τwash-in, although it did increase Bmax (FIG. 10B). The same was seen when using FKBP12.6-DPc10 FRET to assess τwash-in with 0.5 vs 5 μmol/L HF647-DPc10 (FIG. 12A AND 12B).
In our working model, under resting conditions, the RyR2 closed state may be stabilized by the interaction between the N-terminal and central domain in the zipped state. We hypothesized that conditions that promote RyR2 opening might enhance the rate of unzipping and accelerate τwash-in for F-DPc10. To test this, we first monitored F-DPc10 wash-in at elevated Ca^2+ (500 nmol/L). However, the 13% faster mean τwash-in was not significant (FIG. 13A). […] Thus, we preincubated myocytes with ryanodine (100 μmol/L) plus caffeine ([…]), which are known to favor long RyR2 openings and were reported to cause RyR2 domain unzipping in HEK293 cells (Liu et al., J Cell Sci, 2010; 123: 1775-1784). Ryanodine+caffeine produced a 21% faster τwash-in (P=0.002; FIG. 13B). However, the most significant effect was seen after presaturating RyR2 with NF-DPc10 (and then NF-DPc10 washout with F-DPc10 present; FIG. 13A). […] Assuming that koff of NF-DPc10 is the same as for F-DPc10 and using Equation, the kon is increased by 3.2-fold by unzipping as a result of prebinding of NF-DPc10 to the RyR2. Our working hypothesis is that the RyR2 open state may increase the probability of an RyR2 shifting to the unzipped state and may allow faster F-DPc10 wash-in. It also seems that the RyR2 open state (favored by caffeine-ryanodine) differs from the unzipped state (bound with DPc10).
Both FKBP12.6 and CaM bind to the RyR2 and can reduce channel opening, which might alter DPc10 binding. […] Neither CaM nor FKBP12.6 pretreatment altered M-line F-DPc10 fluorescence (FIG. 15). […] We infer that CaM stabilizes the domain interaction between N-terminal and central domains in the zipped state and thereby may reduce DPc10 access to its binding site. To test for direct CaM-DPc10 interaction, we performed control FRET measurements between donor-labeled CaM and acceptor-labeled DPc10 in solution in the absence of RyR. The maximal FRET efficiency (<1%) ruled out direct CaM-DPc10 interaction. […]

RyR2, sequence (B0LPN4 whole entry): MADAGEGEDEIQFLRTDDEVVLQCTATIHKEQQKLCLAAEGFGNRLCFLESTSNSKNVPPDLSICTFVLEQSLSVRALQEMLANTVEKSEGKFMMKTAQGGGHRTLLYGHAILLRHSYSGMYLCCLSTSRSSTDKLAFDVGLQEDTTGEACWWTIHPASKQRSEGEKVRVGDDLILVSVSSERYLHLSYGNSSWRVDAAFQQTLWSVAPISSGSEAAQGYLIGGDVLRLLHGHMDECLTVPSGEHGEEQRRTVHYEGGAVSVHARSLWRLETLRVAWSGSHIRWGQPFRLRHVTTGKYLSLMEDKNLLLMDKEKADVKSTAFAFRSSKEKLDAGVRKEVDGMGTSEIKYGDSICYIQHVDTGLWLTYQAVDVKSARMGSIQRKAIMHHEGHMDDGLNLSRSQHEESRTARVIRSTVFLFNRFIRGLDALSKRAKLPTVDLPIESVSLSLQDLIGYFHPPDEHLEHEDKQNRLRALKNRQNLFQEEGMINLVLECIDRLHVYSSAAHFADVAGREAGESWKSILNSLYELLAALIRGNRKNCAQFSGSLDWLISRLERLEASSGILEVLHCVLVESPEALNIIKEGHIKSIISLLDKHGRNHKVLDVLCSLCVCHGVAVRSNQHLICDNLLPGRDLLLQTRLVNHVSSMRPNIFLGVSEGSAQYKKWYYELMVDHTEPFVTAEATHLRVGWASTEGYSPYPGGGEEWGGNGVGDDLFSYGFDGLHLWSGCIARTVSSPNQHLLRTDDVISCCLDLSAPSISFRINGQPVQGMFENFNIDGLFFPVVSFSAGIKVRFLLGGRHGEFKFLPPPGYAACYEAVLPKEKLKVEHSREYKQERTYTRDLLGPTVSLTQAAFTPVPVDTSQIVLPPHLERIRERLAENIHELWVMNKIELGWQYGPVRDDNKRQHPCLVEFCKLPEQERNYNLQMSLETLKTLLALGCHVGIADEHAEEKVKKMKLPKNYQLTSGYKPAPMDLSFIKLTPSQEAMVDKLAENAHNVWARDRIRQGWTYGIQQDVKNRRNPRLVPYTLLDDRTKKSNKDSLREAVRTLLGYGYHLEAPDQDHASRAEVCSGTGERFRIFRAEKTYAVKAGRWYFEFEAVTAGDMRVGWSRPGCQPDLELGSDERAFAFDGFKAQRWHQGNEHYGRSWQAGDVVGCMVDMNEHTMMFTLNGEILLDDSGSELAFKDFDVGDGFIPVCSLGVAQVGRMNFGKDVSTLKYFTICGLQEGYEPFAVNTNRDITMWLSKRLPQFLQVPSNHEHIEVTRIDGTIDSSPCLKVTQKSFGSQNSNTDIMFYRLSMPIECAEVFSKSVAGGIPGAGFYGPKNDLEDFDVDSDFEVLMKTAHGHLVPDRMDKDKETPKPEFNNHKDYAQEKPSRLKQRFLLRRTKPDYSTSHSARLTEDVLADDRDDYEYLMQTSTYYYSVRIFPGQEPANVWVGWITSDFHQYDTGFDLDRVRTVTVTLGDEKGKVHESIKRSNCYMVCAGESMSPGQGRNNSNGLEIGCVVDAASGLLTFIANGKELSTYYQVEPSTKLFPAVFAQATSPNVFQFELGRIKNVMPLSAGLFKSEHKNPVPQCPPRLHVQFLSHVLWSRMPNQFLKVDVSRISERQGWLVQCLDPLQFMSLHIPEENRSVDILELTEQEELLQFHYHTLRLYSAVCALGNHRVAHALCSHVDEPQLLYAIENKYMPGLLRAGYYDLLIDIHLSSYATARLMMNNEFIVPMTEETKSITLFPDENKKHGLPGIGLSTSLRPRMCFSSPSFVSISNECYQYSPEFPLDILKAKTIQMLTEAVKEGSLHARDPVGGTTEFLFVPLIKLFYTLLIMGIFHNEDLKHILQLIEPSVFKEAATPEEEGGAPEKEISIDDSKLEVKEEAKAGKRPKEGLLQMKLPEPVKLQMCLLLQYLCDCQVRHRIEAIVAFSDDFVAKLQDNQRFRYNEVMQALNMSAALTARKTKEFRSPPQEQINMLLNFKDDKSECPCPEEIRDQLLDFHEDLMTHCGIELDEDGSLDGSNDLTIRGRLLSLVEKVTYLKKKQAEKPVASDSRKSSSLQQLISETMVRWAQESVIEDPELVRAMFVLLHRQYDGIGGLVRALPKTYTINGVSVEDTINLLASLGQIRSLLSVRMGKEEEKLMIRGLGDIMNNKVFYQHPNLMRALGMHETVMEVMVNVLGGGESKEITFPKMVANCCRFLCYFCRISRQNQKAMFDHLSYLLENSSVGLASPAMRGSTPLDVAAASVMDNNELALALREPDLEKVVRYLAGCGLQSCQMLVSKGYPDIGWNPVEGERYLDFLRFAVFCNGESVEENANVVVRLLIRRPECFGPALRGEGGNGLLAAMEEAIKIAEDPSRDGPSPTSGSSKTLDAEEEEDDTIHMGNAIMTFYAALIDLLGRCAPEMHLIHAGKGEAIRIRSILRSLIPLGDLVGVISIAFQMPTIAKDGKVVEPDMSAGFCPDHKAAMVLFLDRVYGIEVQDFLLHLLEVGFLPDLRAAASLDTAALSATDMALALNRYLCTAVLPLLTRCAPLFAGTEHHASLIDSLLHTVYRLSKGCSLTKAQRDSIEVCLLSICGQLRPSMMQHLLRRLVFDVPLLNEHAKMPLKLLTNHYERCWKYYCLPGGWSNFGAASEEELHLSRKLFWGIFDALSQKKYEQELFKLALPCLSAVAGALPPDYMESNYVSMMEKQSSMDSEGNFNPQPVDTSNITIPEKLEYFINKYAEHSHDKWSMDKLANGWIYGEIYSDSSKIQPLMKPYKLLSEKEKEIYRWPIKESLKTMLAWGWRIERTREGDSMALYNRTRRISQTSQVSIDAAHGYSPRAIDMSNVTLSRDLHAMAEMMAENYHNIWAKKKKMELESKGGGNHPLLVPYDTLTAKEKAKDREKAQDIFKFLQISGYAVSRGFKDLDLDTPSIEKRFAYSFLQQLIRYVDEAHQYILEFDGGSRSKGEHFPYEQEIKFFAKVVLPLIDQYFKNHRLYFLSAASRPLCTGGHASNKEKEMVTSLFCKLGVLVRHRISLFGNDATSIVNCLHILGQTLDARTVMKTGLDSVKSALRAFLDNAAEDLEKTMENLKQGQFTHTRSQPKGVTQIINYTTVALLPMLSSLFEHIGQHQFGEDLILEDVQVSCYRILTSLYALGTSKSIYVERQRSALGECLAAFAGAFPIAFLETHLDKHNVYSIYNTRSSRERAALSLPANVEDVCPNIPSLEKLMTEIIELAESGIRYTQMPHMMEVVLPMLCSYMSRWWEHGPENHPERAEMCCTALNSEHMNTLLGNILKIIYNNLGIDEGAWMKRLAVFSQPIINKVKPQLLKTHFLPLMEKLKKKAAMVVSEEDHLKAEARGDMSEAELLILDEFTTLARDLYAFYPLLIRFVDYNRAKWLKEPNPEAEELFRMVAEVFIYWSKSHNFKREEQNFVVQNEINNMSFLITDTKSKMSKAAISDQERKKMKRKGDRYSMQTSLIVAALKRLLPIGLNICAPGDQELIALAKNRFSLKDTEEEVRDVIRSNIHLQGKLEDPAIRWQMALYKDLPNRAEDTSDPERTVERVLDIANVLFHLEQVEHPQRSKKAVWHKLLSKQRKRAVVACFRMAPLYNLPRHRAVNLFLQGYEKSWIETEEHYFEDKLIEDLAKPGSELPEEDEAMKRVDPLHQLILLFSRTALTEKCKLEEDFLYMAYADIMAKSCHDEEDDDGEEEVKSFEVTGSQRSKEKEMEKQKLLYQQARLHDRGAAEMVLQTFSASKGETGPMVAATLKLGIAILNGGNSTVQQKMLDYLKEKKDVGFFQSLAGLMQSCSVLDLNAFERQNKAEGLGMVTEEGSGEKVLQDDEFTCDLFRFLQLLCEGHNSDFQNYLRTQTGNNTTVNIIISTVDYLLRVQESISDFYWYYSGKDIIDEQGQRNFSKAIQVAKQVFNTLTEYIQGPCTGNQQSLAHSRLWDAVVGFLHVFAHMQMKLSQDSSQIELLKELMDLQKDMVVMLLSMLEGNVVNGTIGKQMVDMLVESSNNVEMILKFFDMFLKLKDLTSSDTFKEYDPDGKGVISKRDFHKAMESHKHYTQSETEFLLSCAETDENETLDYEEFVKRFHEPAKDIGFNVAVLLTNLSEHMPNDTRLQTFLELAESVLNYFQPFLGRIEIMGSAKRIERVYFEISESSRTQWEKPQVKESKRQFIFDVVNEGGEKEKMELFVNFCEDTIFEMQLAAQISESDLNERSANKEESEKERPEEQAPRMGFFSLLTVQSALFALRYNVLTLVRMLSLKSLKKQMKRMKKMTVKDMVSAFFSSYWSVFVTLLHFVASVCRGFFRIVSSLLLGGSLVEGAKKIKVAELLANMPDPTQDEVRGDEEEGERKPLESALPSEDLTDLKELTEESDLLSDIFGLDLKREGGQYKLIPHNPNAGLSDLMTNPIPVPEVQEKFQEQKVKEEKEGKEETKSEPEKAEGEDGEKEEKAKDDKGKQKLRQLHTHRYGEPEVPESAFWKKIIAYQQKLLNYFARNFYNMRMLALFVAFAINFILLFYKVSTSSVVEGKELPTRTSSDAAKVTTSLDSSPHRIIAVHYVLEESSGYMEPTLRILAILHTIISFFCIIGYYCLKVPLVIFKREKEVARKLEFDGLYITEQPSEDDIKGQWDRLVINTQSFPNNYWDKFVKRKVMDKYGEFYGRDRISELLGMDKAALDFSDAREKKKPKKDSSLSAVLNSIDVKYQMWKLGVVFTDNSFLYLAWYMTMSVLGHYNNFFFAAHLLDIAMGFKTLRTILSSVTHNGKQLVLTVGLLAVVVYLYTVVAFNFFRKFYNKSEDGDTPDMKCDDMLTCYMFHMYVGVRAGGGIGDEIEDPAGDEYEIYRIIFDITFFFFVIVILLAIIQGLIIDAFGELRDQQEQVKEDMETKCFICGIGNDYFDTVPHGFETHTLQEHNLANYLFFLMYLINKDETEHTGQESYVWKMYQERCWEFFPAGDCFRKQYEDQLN

| Molecule | occurrence of SCW vs. control (intact cardiac myocytes; pacing rate increased from 1 to 5 Hz) | CaSpF compared with control ([1]; 50 μM/L H2O2, after 1 Hz stimulation) | Ca2+ spark Amplitude (ΔF/F0) [1] | Ca2+ spark FDHM [1] [ms] | Ca2+ spark FWHM [1] [μm] | SR Ca2+ content ([1]; intact myocytes) | acceleration of F-DPc10 association, by a factor of (RyR2; after presaturating RyR2 with NF-DPc10, then washout with F-DPc10 present) | effect on HF647-DPc10 wash-out kinetics (RyR2) | increase of kon of F-DPc10 (RyR2; prebinding of NF-DPc10 to RyR2) [fold] | increase in kon of F-DPc10 (RyR2; pretreatment with NF-DPc10) | reduction of maximal HF647-DPc10 binding (Bmax) (RyR2; 1 μmol/L dantrolene) [%] | effect on H2O2-induced increase in frequency of SCW (intact cardiac myocytes; dantrolene added before H2O2) | effect on H2O2-induced increase in frequency of Ca2+ sparks ([1]; dantrolene added before H2O2) | effect on control myocytes (Ca2+ sparks and SCW) ([1]; no H2O2) |
| --- | --- | --- | --- | --- | --- | --- | --- | --- | --- | --- | --- | --- | --- | --- |
| OO [H2O2, hydrogen peroxide] | significantly increased | significantly increased | 0.57 ± 0.01 ΔF/F0 | 67.05 ± 3.25 | 2.04 ± 0.07 | did not significantly alter |  |  |  |  |  |  |  |  |
| GFCPDHKAAMVLFLDRVYGIEVQDFLLHLLEVGFLP [DPc10] |  |  |  |  |  |  | ≈ 2 | accelerate | 3.2 | ≈ 320% |  |  |  |  |
| O=C1CN(/N=C/c2ccc(-c3ccc([N+](=O)[O-])cc3)o2)C(O)=N1 [dantrolene] |  |  | 0.55 ± 0.01 ΔF/F0 | 61.98 ± 3.35 | 1.93 ± 0.09 |  |  | had no effect |  |  | 74 | suppressed | suppressed | had no effect |

Source: patent US10281476B2, “Methods to identify modulators of RyR calcium channels” (REGENTS OF THE UNIVERSITY OF MINNESOTA, priority 2013, dated 2019)
